# From patent US6949542B2, “Dihydro-benzo[b][1,4]diazepin-2-one derivatives” (Hoffman-La Roche Inc., priority 2002, dated 2005)
row,Compound,melting point [°C]
1,"Cc1cc(-c2cccc(C3=Nc4cc(N(C)CC(C)C)c(C(F)(F)F)cc4NC(=O)C3)c2)ccn1 [Example 362, 7-(Isobutyl-methyl-amino)-4-[3-(2-methyl-pyridin-4-yl)-phenyl]-8-trifluoromethyl-1,3-dihydro-benzo[b][1,4]diazepin-2-one]",189
2,"Cc1cc(-c2cccc(C3=Nc4cc(Cl)c(Cl)cc4NC(=O)C3)c2)c(C)cn1 [Example 137, 7,8-Dichloro-4-[3-(2,5-dimethyl-pyridin-4-yl)-phenyl]-1,3-dihydro-benzo[b][1,4]diazepin-2-one]",208
3,"O=C1CC(c2cccc(-c3cnccn3)c2)=Nc2cc(C(F)(F)F)c(Cl)cc2N1 [Example 110, 8-Chloro-4-(3-pyrazin-2-yl-phenyl)-7-trifluoromethyl-1,3-dihydro-benzo[b][1,4]diazepin-2-one]",214
4,"Cc1cc2c(cc1Cl)NC(=O)CC(c1cccc(-c3ccnc(C(F)(F)F)c3)c1)=N2 [Example 264, 8-Chloro-7-methyl-4-[3-(2-trifluoromethyl-pyridin-4-yl)-phenyl]-1,3-dihydro-benzo[b][1,4]diazepin-2-one]",247
5,"Cc1cc(-c2cccc(C3=Nc4ccc(Cl)cc4NC(=O)C3)c2)cc(C)n1 [Example 118, 8-Chloro-4-[3-(2,6-dimethyl-pyridin-4-yl)-phenyl]-1,3-dihydro-benzo[b][1,4]diazepin-2-one]",236
6,"Cc1cc2c(cc1Cl)NC(=O)CC(c1cccc(-c3ccnc(C(C)C)c3)c1)=N2 [Example 270, 8-Chloro-4-[3-(2-isopropyl-pyridin-4-yl)-phenyl]-7-methyl-1,3-dihydro-benzo[b][1,4]diazepin-2-one]",196
7,"C=Cc1cc2c(cc1C(F)(F)F)NC(=O)CC(c1cccc(-c3cccnc3)c1)=N2 [Example 214, 4-(3-Pyridin-3-yl-phenyl)-8-trifluoromethyl-7-vinyl-1,3-dihydro-benzo[b][1,4]diazepin-2-one]",208 to 209
8,"O=C1CC(c2cccc(-c3ccccn3)c2)=Nc2ccc(C#Cc3ccc(F)cc3)cc2N1 [Example 165, 8-(4-Fluoro-phenylethynyl)-4-(3-pyridin-2-yl-phenyl)-1,3-dihydro-benzo[b][1,4]diazepin-2-one]",249
9,"O=C1CC(c2cccc(-c3ccnc(CO)c3)c2)=Nc2cc(Cl)c(Cl)cc2N1 [Example 285, 7,8-Dichloro-4-[3-(2-hydroxymethyl-pyridin-4-yl)-phenyl]-1,3-dihydro-benzo[b][1,4]diazepin-2-one]",224
10,"Cc1nccc(-c2cccc(C3=Nc4ccc(Cl)cc4NC(=O)C3)c2)n1 [Example 305, 8-Chloro-4-[3-(2-methyl-pyrimidin-4-yl)-phenyl]-1,3-dihydro-benzo[b][1,4]diazepin-2-one]",215 to 220
11,"O=C1CC(c2cccc(-c3cccnc3)c2)=Nc2cc(OCC(F)(F)F)c(Cl)cc2N1 [Example 202, 8-Chloro-4-(3-pyridin-3-yl-phenyl)-7-(2,2,2-trifluoro-ethoxy)-1,3-dihydro-benzo[b][1,4]diazepin-2-one]",203 to 204
12,"CCCN(C)Cc1cc(-c2cccc(C3=Nc4cc(OCC(F)(F)F)c(C(F)(F)F)cc4NC(=O)C3)c2)ccn1 [Example 382, 4-(3-{2-[(Methyl-propyl-amino)-methyl]-pyridin-4-yl}-phenyl)-7-(2,2,2-trifluoro-ethoxy)-8-trifluoromethyl-1,3-dihydro-benzo[b][1,4]diazepin-2-one]",155
13,"Cc1cc(-c2cccc(C3=Nc4cc(C)c(Cl)cc4NC(=O)C3)c2)ncn1 [Example 309, 8-Chloro-7-methyl-4-[3-(6-methyl-pyrimidin-4-yl)-phenyl]-1,3-dihydro-benzo[b][1,4]diazepin-2-one]",226 to 227
14,"CCc1cc(-c2cccc(C3=Nc4cc(Cl)c(C(F)(F)F)cc4NC(=O)C3)c2)ccn1 [Example 156, 7-Chloro-4-[3-(2-ethyl-pyridin-4-yl)-phenyl]-8-trifluoromethyl-1,3-dihydro benzo[b][1,4]diazepin-2-one]",217
15,"O=C1CC(c2cccc(-c3cccnc3)c2)=Nc2ccc(-c3ccccc3F)cc2N1 [Example 29, 8-(2-Fluoro-phenyl)-4-(3-pyridin-3-yl-phenyl)-1,3-dihydro-benzo[b][1,4]diazepin-2-one]",208 to 209
16,"Cc1ncccc1-c1cccc(C2=Nc3ccc(-c4ccccc4F)cc3NC(=O)C2)c1 [Example 19, 8-(2-Fluoro-phenyl)-4-[3-(2-methyl-pyridin-3-yl)-phenyl]-1,3-dihydro-benzo[b][1,4]diazepin-2-one]",192 to 194
17,"Cc1cc(-c2cccc(C3=Nc4cc(CO)c(C(F)(F)F)cc4NC(=O)C3)c2)ccn1 [Example 261, 7-Hydroxymethyl-4-[3-(2-methyl-pyridin-4-yl)-phenyl]-8-trifluoromethyl-1,3-dihydro-benzo[b][1,4]diazepin-2-one]",218
18,"Cc1cc2c(cc1C(F)(F)F)N=C(c1cccc(-c3cnccn3)c1)CC(=O)N2 [Example 93, 8-Methyl-4-(3-pyrazin-2-yl-phenyl)-7-trifluoromethyl-1,3-dihydro-benzo[b][1,4]diazepin-2-one]",216
19,"O=C1CC(c2cccc(-c3ccnc(CO)c3)c2)=Nc2cc(C(F)(F)F)c(C(F)(F)F)cc2N1 [Example 417, 4-[3-(2-Hydroxymethyl-pyridin-4-yl)-phenyl]-7,8-bis-trifluoromethyl-1,3-dihydro-benzo[b][1,4]diazepin-2-one]",209
20,"O=C1CC(c2cccc(-c3ccnc(C4CCCC4)c3)c2)=Nc2cc(OCC(F)(F)F)c(C(F)(F)F)cc2N1 [Example 354, 4-[3-(2-Cyclopentyl-pyridin-4-yl)-phenyl]-7-(2,2,2-trifluoro-ethoxy)-8-trifluoromethyl-1,3-dihydro-benzo[b][1,4]diazepin-2-one]",147 to 148
21,"Cc1ccc(-c2cccc(C3=Nc4cc(N(C)C)c(C(F)(F)F)cc4NC(=O)C3)c2)cn1 [Example 10, 7-Dimethylamino-4-[3-(6-methyl-pyridin-3-yl)-phenyl]-8-trifluoromethyl-1,3-dihydro-benzo[b][1,4]diazepin-2-one]",233 to 237
22,"Cc1cc2c(cc1C(F)(F)F)NC(=O)CC(c1cccc(-c3ccc(N(C)C)nc3)c1)=N2 [Example 217, 4-[3-(6-Dimethylamino-pyridin-3-yl)-phenyl]-7-methyl-8-trifluoromethyl-1,3-dihydro-benzo[b][1,4]diazepin-2-one]",231 to 233
23,"Cc1ccncc1-c1cccc(C2=Nc3cc(C)c(C(F)(F)F)cc3NC(=O)C2)c1 [Example 233, 7-Methyl-4-[3-(4-methyl-pyridin-3-yl)-phenyl]-8-trifluoromethyl-1,3-dihydro-benzo[b][1,4]diazepin-2-one]",205 to 207
24,"CCCN(C)c1cc2c(cc1C(F)(F)F)NC(=O)CC(c1cccc(-c3cnccn3)c1)=N2 [Example 102, 7-(Methyl-propyl-amino)-4-(3-pyrazin-2-yl-phenyl)-8-trifluoromethyl-1,3-dihydro-benzo[b][1,4]diazepin-2-one]",201
